Results published in US7803832B2, “N-(1-arylpyrazol-4L)sulfonamides and their use as parasiticides” (Pfizer Inc., priority 2004, dated 2010).

System: Ctenocephalides felis (cat flea)
Test: flea membrane feed test
Settings: in vitro membrane feed; adult fleas fed 2 hours on citrated dog blood containing compound, stored overnight, percentage of fleas killed; dose responses repeated n=5
Protocol: The flea membrane feed test is used to measure the biological activities of the compounds claimed. The assay involves in vitro testing against Ctenocephalides felis conducted according to the following general procedure.
Fleas are cultured in vitro using dog blood. 25-30 adult Ctenocephalides felis (cat flea) were collected and placed in a test chamber (50 ml polystyrene tube with fine nylon mesh sealing the end). Citrated dog blood was prepared by adding aqueous sodium citrate solution (10 ml, 20% w/v, 20 g sodium citrate in 100 ml water) to dog blood (250 ml). Test compounds were dissolved in dimethylsulfoxide to give a working stock solution of 4 mg/ml. The stock solution (12.5 μl) was added to citrated dog blood (5 ml) to give an initial test concentration of 10 μg/ml. For testing at 30 μg/ml, working stock solutions of 12 mg/ml were prepared.
Citrated dog blood containing the test compound (5 ml, 10 μg/ml) was placed into a plastic Petri dish lid, which was kept at 37° C. on a heated pad. Parafilm was stretched over the open top to form a tight membrane for the fleas to feed through. The test chamber containing the fleas was placed carefully onto the parafilm membrane and the fleas commenced feeding.
The fleas were allowed to feed for 2 hours and the test chambers were then removed and stored overnight at room temperature.
The fleas were observed and the percentage of fleas killed recorded. Compounds were initially tested at 10 μg/ml, wherefrom relevant dose responses (100, 30, 10, 3, 1, 0.3, 0.1 μg/ml) were conducted and repeated n=5. Data was plotted to generate ED80, ED90 & ED95 values.

In the case of `CS(=O)(=O)N(CC#N)c1c(C#N)nn(-c2c(Cl)cc(C(F)(F)F)cc2Cl)c1N` [Example 5, N-{5-amino-3-cyano-1-[2,6-dichloro-4-(trifluoromethyl)phenyl]-1H-pyrazol-4-yl}-N-(cyanomethyl)methanesulfonamide], the “Flea feed ED80 results” value was 1 µg/mL.
For `CN(c1cn(-c2c(Cl)cc(C(F)(F)F)cc2Cl)nc1C#N)S(=O)(=O)C(F)(F)F` [Example 27, N-{3-cyano-1-[2,6-dichloro-4-(trifluoromethyl)phenyl]-1H-pyrazol-4-yl}-1,1,1-trifluoro-N-methyl methanesulfonamide], the “Flea feed ED80 results” value was 0.1 µg/mL.
In the case of `CS(=O)(=O)N(c1c(C#N)nn(-c2c(Cl)cc(C(F)(F)F)cc2Cl)c1N)S(=O)(=O)c1ccc(F)cc1F` [Example 84, N-{5-amino-3-cyano-1-[2,6-dichloro-4-(trifluoromethyl)phenyl]-1H-pyrazol-4-yl}-2,4-difluoro-N-(methylsulfonyl)benzenesulfonamide], the “Flea feed ED80 results” value was 3 µg/mL.
